Assay [1] relates to S. aureus SH1000 WT biofilms. The experiment in a line: ThT fluorescence assay of amyloid formation in S. aureus SH1000 WT biofilm cultures. The settings on record: 24 h, 37° C., peptide 80 μM unless otherwise noted, vs peptide-free control. The format is cell-based, Staphylococcus aureus. As to the method: We developed a novel protocol to identify amyloid fibril formation during biofilm development in two S. aureus strains—SH1000 WT, a rsbU^+ laboratory strain^27, and MN8, a clinical strain isolated from the human urogenital tract (Table 1). After 24 hours of batch growth in microtiter plates, biofilms were washed and incubated with Thioflavin T (ThT), and the resulting fluorescence signals served as a proxy for the extent of PSM fibril formation in the EM (FIG. 1A). Next, we utilized this assay to test α-sheet amyloid inhibitor designs and control peptides (sequences provided in Table 2) in batch biofilm cultures. The first inhibitor used is AP90 (Alternating Peptide #90, referred to as α1 previously^25,26). […]
Overnight cultures of S. aureus (see Table 1 for a list of strains used in this study) were spun down and re-suspended in fresh Luria-Bertani (LB) media to an optical density of 0.1 (600 nm). […] The detached biofilm suspensions were transferred to a 96-well black-walled plate (Corning, TC-treated polystyrene) and ThT fluorescence was read at 438/495 nm on a Perkin-Elmer Enspire™ plate reader. Fluorescence measurements were corrected by subtracting the background intensity of identical samples without ThT. […] After 15 minutes of incubation at room temperature, fluorescence ratios of the two dyes were determined using a Perkin-Elmer Enspire™ plate reader.

The test system of assay [2] is Escherichia coli (EC). The experiment in a line: Crystal violet biofilm assay. It is filed as cell-based. From the text: (§1) Furthermore, these same inhibitors are active against EC, SE, and SM.
The subject of assay [3] is Pseudomonas aeruginosa (PA). Description: Crystal violet biofilm assay. The format is cell-based.
Source text: as §1

Assay [4] concerns Staphylococcus epidermidis (SE). The experiment in a line: Crystal violet biofilm assay. The format is cell-based.
Source text: as §1

The subject of assay [5] is Streptococcus mutans (SM). The experiment in a line: Crystal violet biofilm assay. It is filed as cell-based.
Source text: as §1

Assay [6] concerns S. mutans biofilm. The experiment in a line: TEM of S. mutans biofilm. The settings on record: 100 μM (FIG. 16). It is filed as cell-based, Streptococcus mutans. The method, then: FIG. 16. Synthetic α-sheet peptides as a novel anti-biofilm agent for the dental pathogen, S. mutans. A) ThT fluorescence of S. mutans biofilms decreases upon addition of synthetic α-sheet peptides AP193, AP407, and AP90. […] D) synthetic α-sheet peptides added to S. mutans grown on hydroxyapatite ceramic particles led to significant decreases in ThT fluorescence.
The phenotypic effects of synthetic α-sheet peptides were determined using TEM.

The subject of assay [7] is SA. Description: Crystal violet biofilm assay. The format is cell-based, Staphylococcus aureus.
Source text: as §1

Assay [8] concerns the target CsgA (Escherichia coli, UniProt P28307). The settings on record: dimeric AP193, 14:1 molar ratio (CsgA:AP193), 150 h, 25° C.
Method: A) CsgA aggregation monitored by ThT fluorescence. […] Error bars represent one standard deviation from the mean of three replicates.
For inhibition assays with CsgA, purified, recombinant CsgA was desalted from a stock solution containing 8 M Gnd HCl into 50 mM potassium phosphate buffer (KPi, pH 6.2) and diluted to a final concentration of 0.2 mg/m L. Samples were aliquoted into 96 well plates and incubated quiescently at 25° C. Plates were removed for periodic measurements in a plate reader, where the fluorescence of Thioflavin T (ThT) was used to monitor protein fibril formation in real time. ThT fluoresces upon binding p-sheet structure and serves as a proxy for amyloid fibril content.
In some samples, the dimeric α-sheet peptide AP193 was also added to the mixture at a molar ratio of 14:1 (CsgA:AP193). After 150 h incubation, the extent of amyloid formation in the two samples was measured by ThT fluorescence (FIG. 11C).
Assay [9] relates to E. coli UTI89 WT biofilms. The experiment in a line: In situ ThT assay of EM amyloid in E. coli UTI89 WT biofilms. The format is cell-based. As to the method: (§2) FIG. 12. […] Error bars indicate standard deviation of the mean of at least three replicates. Significance values are p<0.05: *, p<0.01: **, p<0.001: ***.
(§3) Biofilms of the cystitis E. coli isolate UTI89 were cultivated in YESCA broth with 4% DMSO at 26° C., conditions which are known to elicit increased curli biogenesis. Varying doses of the dimeric α-sheet peptide, AP193, were also added to the cultures at the time of inoculation. AP193 is covalently linked through a single cysteine in each of its constituent monomers. Since DMSO was already present in the biofilm growth medium, AP193 stocks were supplemented with 4% DMSO to improve solubility, and the buffer solution was maintained at high pH (sodium carbonate, pH 9.6) to retain oxidation of the disulfide bond. After 48 hours of growth, biofilms were washed, homogenized, and stained with ThT.
(§4) UTI89 biofilms were also cultivated in the presence of an unstructured peptide, P1, which retains a mixture of L- and D-amino acids but lacks the α-sheet secondary structure of AP193.

For assay [10], the system named is GERB 337. The experiment in a line: ThT assay of EM amyloid in clinical isolate biofilms. The format is cell-based, E. coli. The settings on record: antibiotic resistant clinical isolate GERB 337. The text has this: (§5) FIG. 12. Synthetic α-sheet peptides inhibit amyloid formation in uropathogenic E. coli biofilms. […] E) AP193 is also effective in reducing the EM amyloid content of two clinical isolate strains, GERB 319 and GERB 337. Error bars indicate standard deviation of the mean of at least three replicates. Significance values are p<0.05: *, p<0.01: **, p<0.001: ***.
(§6) To extend the applicability of synthetic α-sheet peptides beyond the well-characterized UTI89 system, we obtained several E. coli isolates from pediatric patients who presented with urinary tract infections.

In assay [11] the test system is GERB 319. Described as above. It is filed as cell-based, E. coli. The settings on record: antibiotic resistant clinical isolate GERB 319.
Source text: as §5, §6

The test system of assay [12] is UTI89 ΔcsgA biofilms. The experiment in a line: In situ ThT assay in UTI89 ΔcsgA knockout biofilms. The format is cell-based, E. coli. As to conditions: UTI89 ΔcsgA knockout strain. The method, then: as §2, §3, §4

The source of these data is US11033604B2, “Reagents and methods for treating bacterial infection” (priority 2018, dated 2021).

Positions of bridges follow the written chain, without caps; N, C: chain ends. Non-standard residues stand in square brackets, D forms with d. No end group written: not given here.

Chain of CsgA (P28307 21-151): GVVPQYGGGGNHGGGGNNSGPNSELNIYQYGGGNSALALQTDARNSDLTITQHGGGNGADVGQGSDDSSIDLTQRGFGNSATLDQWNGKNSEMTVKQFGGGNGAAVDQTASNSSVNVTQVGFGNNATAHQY

As for “RGEmNlCwMNEYSGWcMnLkMGR (RGE[dM]N[dL]C[dW]MNEYSGW[dC]M[dN]L[dK]MGR; disulfide 7-16 (inferred)) [AP407, variant of AP90 with a disulfide bond]”, in [1], the “Reduction of amyloid fibril formation (ThT fluorescence)” value turned out to be 56%.

“RGEmNlSwMNEYSGWtMnLkMGR (RGEMNLSWMNEYSGWTMNLKMGR; not fully specified (residues 4, 6, 8, 16, 18, 20); printed as RGEmNlSwMNEYSGWtMnLkMGR) [AP90]”: the “Activity against biofilm-forming bacteria (crystal violet)” value in assay [2], in assay [4] and in [5] was “active” throughout. Besides, the “Biofilm inhibition (crystal violet, FIG. 10)” value in assay [3] and in assay [7] was “inhibition” throughout. The “Fibrillar structures in extracellular material by TEM” value in assay [6] is given as “such structures were not observed”.

Take “RGEmNyFwMNEYYGWtMnCkMGR (RGE[dM]N[dY]F[dW]MNEYYGW[dT]M[dN]C[dK]MGR) [AP193, hydrophobic AP90 derivative, variant to support different chemical coupling reactions]”: the “CsgA fibril formation (endpoint ThT fluorescence)” value in assay [8] was “significantly reduced”. Besides, in [9] (YESCA broth + 4% DMSO, 26° C., 48 h), the “EM amyloid content of biofilm (ThT fluorescence), varying doses” value is “dose-dependent reduction in ThT fluorescence”. Also, the “ThT fluorescence of biofilm at highest dose” value in [9] (highest dose) is listed as “reduced the ThT fluorescence of WT biofilms to levels near those of the ΔcsgA strain”. In addition, the “ThT fluorescence of biofilm” value is “significant decrease in ThT fluorescence” in [10], “significant decrease in ThT fluorescence” in assay [11] and “no significant changes” in assay [12].
